From patent publication US20240360194A1, “New Peptides as Potent and Selective GIP Receptor Agonists” (Sanofi, priority 2021, published 2024) come the findings set out here.

≈ marks a conversion by molar mass, not a printed value. Numbered stars: 1 amine (or outer) side, 2 acyl side, 3 side chain; on linkers, the order of the positions; unused ones are H or OH. Square brackets hold non-standard residues; d marks the D form. Side chains are listed from the residue outwards. Peptide text beside a SMILES is read from it. * marks the point of attachment. C18 diacid = O=C(O)CCCCCCCCCCCCCCCCC(=O)*; γGlu = O=C(O)[C@H](CCC(=O)[*:2])N[*:1]; dIva = CC[C@@](C)(N)C(=O)O; AEEA = NCCOCCOCC(=O)O; Aib = CC(C)(N)C(=O)O Where only a bound is given, the exact number is not on record here.

Series [1] concerns the target T1, human GIP receptor (hGIPR) (Homo sapiens, UniProt P48546).
T1 sequence (P48546 22-466): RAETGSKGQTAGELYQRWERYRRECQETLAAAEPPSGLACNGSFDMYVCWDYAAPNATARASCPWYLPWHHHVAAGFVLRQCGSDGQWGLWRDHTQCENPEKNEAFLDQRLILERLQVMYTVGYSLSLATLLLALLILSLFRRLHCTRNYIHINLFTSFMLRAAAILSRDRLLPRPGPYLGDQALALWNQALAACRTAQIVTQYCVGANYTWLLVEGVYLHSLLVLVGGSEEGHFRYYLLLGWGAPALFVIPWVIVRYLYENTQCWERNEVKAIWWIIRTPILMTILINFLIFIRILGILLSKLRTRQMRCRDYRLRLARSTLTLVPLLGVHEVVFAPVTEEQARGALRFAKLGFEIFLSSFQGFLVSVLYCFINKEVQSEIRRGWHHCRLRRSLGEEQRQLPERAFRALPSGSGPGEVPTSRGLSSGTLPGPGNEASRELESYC
In words: Binding assay, displacement of [125I]GIP from HEK-293 membranes over-expressing GIPR (SPA). Conditions: [125I]GIP displacement. Summed up:
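Membranes from HEK-293 cells over-expressing human GIPR or GLP-1R, isolated by homogenising, sonicating and ultracentrifuging at 100000×g into HEPES/EDTA/NaCl buffer with protease inhibitors, were used for binding.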
(Displacement assays read how much labelled ligand stays bound in the presence of the test substance.)

Series [2] is described as follows: Solubility assessment (UHPLC-UV of supernatant, target 10 mg/ml). Conditions: for Soluble amount: pH 7.4. It is filed as physicochemical. In short, it runs like this: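 Peptides at 10 mg/ml (purity-corrected) in 100 mM phosphate pH 7.4, optionally with 2.7 mg/ml m-cresol; gentle agitation 1 h, then 5° C. overnight (24 h). Supernatant after 15 min centrifugation at 2500 RCF quantified by UHPLC-UV, with sequence-based extinction coefficients.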

Series [3] in a line: Pharmacokinetic evaluation in rats. Conditions: male, SD, rat, in vivo. The series is classed as in vivo. Here is the method: Compounds were administered in a suitable buffer system, e.g. PBS buffer solution at pH7.4 or DPBS solution at concentrations of 0.05, 0.1, 0.5 or 1 mg/ml depending on dose, species and administration volume. Male SD rats were dosed 0.25 mg/kg, 0.5 mg/kg or 1 mg/kg intravenously (i.v.) or subcutaneously (s.c.). Blood samples were collected after 0.08, 0.25, 0.5, 1, 2, 4, 8, 24, 32, and 48 h post i.v. application and 0.25, 0.5, 1, 2, 4, 8, 24, 32, and 48 h post s.c. application, respectively. Plasma samples were analysed after protein precipitation via liquid chromatography mass spectrometry (LC/MS). PK parameters and half-life were calculated using Phoenix-WinNonlin 8.1 using a non-compartmental model and linear trapezoidal interpolation calculation. Pharmacokinetic profiles were determined as described in Methods.

In series [4] the target is human GLP-1 receptor (hGLP-1R) (Homo sapiens, UniProt P43220). In words: In vitro cellular cAMP assay for GLP-1 receptor efficacy (HEK-293 cell line over-expressing receptor). The series is classed as cell-based. Conditions: HEK-293, 0.1% BSA. For orientation: Cyclic AMP is a second messenger, typically raised through Gs and lowered through Gi signalling.
Chain of human GLP-1 receptor (hGLP-1R) (P43220 24-463): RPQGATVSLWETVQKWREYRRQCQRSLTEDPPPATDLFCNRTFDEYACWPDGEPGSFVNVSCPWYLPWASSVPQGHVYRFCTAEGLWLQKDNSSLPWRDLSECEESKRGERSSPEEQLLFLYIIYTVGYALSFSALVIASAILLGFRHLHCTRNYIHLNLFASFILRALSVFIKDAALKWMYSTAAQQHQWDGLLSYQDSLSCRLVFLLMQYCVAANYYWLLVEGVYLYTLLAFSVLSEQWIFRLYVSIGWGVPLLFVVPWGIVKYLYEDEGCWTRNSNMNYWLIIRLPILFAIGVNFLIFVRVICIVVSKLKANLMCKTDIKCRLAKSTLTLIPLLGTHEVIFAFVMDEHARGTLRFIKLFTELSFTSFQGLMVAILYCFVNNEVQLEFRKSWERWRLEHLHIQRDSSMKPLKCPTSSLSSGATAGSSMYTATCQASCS

By IC50 is commonly meant the concentration at which inhibition is half-maximal. Low values mean greater potency in that assay, high ones weaker potency in that assay. A word on the solubility: it is the dissolved amount per volume that the medium holds. High values mean a readily soluble substance, low ones a poorly soluble substance. By AUC(0-t) is commonly meant the area under the concentration-time curve up to a stated or last time point. By Cmax is commonly meant the peak of the concentration-time curve. For orientation: clearance means a measure of how efficiently the substance is removed, as volume per time. High values mean efficient removal, low ones inefficient removal. For orientation: half-life means the time in which the quantity being followed falls by half. The low end stands for rapid decline, the high end for slow decline. By bioavailability is commonly meant the share of a dose that reaches the circulation, judged against a reference dose that is usually intravenous. One may read the EC50 as the concentration giving half of the maximal effect. Read a high EC50 as lower potency in that assay. Compound `CC[C@H](C)[C@H](NC(=O)[C@H](CCCNC(=N)N)NC(=O)[C@H](CCC(=O)O)NC(=O)[C@H](CCCCNC(=O)COCCOCCNC(=O)COCCOCCNC(=O)CC[C@H](NC(=O)CCCCCCCCCCCCCCCCC(=O)O)C(=O)O)NC(=O)C(C)(C)NC(=O)[C@@H](NC(=O)[C@H](CO)NC(=O)[C@H](CC(C)C)NC(=O)[C@H](CC(=O)O)NC(=O)[C@H](CO)NC(=O)[C@@H](NC(=O)[C@H](Cc1ccccc1)NC(=O)[C@@H](NC(=O)CNC(=O)[C@H](CCC(=O)O)NC(=O)C(C)(C)NC(=O)[C@@H](N)Cc1ccc(O)cc1)[C@@H](C)O)[C@@H](C)CC)[C@@H](C)CC)C(=O)N[C@@H](Cc1c[nH]cn1)C(=O)N[C@@H](CCC(N)=O)C(=O)NC(C)(C)C(=O)N[C@@H](CCC(=O)O)C(=O)N[C@@H](Cc1ccccc1)C(=O)N[C@H](C(=O)N[C@@H](CCC(=O)O)C(=O)N[C@@H](Cc1c[nH]c2ccccc12)C(=O)N[C@@H](CC(C)C)C(=O)N[C@@H](CC(C)C)C(=O)N[C@@H](C)C(=O)N[C@@H](CCC(N)=O)C(=O)NCC(=O)N1CCC[C@H]1C(=O)N[C@@H](CO)C(=O)N[C@@H](CO)C(=O)NCC(=O)N[C@@H](C)C(=O)N1CCC[C@H]1C(=O)N1CCC[C@H]1C(=O)N1CCC[C@H]1C(=O)N[C@@H](CO)C(N)=O)[C@@H](C)CC` [SEQ ID NO: 21, H2N-Y-Aib-E-G-T-F-I-S-D-L-S-I-Aib-K[{AEEA}2-gGlu-C18OH]-E-R-I-H-Q-Aib-E-F-I-E-W-L-L-A-Q-G-P-S-S-G-A-P-P-P-S-NH2] (H-Y[Aib]EGTFISDLSI[Aib]K([AEEA-AEEA-γGlu-C18 diacid])ERIHQ[Aib]EFIEWLLAQGPSSGAPPPS-NH2) yielded an IC50 in series [1] of 0.8 nM. The Soluble amount in series [2] (24 h) was >10.0 mg/mL. The solubility at 24 h in series [2] (pH 7.4, Soluble amount) amounted to 10100 µg/mL (≈ 2030 µM). In series [3] (iv, 0.25 mg/kg), this compound gave an AUC(0-t) of 25800 ng·h/mL, a Cmax of 1020 ng/mL, a clearance of 0.151 mL/min/kg and a half-life of 12.9 h. In series [3] (sc, 0.5 mg/kg), this compound had an AUC(0-t) of 33900 ng·h/mL, a maximum concentration (Cmax) of 1020 ng/mL, a bioavailability of 68% and a half-life of 12.1 h. In addition, in series [4], the EC50 is > 10 nM.
For the compound `CC[C@H](C)[C@H](NC(=O)[C@H](Cc1ccccc1)NC(=O)[C@H](CCC(=O)O)NC(=O)C(C)(C)NC(=O)[C@H](CCC(N)=O)NC(=O)[C@H](Cc1c[nH]cn1)NC(=O)C(C)(C)NC(=O)[C@H](CCCNC(=N)N)NC(=O)[C@H](CC(=O)O)NC(=O)[C@H](CCCCNC(=O)COCCOCCNC(=O)COCCOCCNC(=O)CC[C@H](NC(=O)CCCCCCCCCCCCCCCCC(=O)O)C(=O)O)NC(=O)C(C)(C)NC(=O)[C@@H](NC(=O)[C@H](CO)NC(=O)[C@H](CC(C)C)NC(=O)[C@H](CC(=O)O)NC(=O)[C@H](CO)NC(=O)[C@@H](NC(=O)[C@H](Cc1ccccc1)NC(=O)[C@@H](NC(=O)CNC(=O)[C@H](CCC(=O)O)NC(=O)C(C)(C)NC(=O)[C@@H](N)Cc1ccc(O)cc1)[C@@H](C)O)[C@@H](C)CC)[C@@H](C)CC)C(=O)N[C@@H](CCC(=O)O)C(=O)N[C@@H](Cc1c[nH]c2ccccc12)C(=O)N[C@@H](CC(C)C)C(=O)N[C@@H](CC(C)C)C(=O)N[C@@H](C)C(=O)N[C@@H](CCC(N)=O)C(=O)N[C@@H](CCCNC(=N)N)C(=O)N1CCC[C@H]1C(=O)N[C@@H](CO)C(=O)N[C@@H](CO)C(=O)NCC(=O)N[C@@H](C)C(=O)N1CCC[C@H]1C(=O)N1CCC[C@H]1C(=O)N1CCC[C@H]1C(=O)N[C@@H](CO)C(N)=O` [SEQ ID NO: 22, H2N-Y-Aib-E-G-T-F-I-S-D-L-S-I-Aib-K[{AEEA}2-gGlu-C18OH]-D-R-Aib-H-Q-Aib-E-F-I-E-W-L-L-A-Q-R-P-S-S-G-A-P-P-P-S-NH2] (H-Y[Aib]EGTFISDLSI[Aib]K([AEEA-AEEA-γGlu-C18 diacid])DR[Aib]HQ[Aib]EFIEWLLAQRPSSGAPPPS-NH2), the IC50 in series [1] came out at 1 nM. In series [3] (iv, 0.25 mg/kg), this compound had an AUC(0-t) of 40200 ng·h/mL, a Cmax of 6030 ng/mL, a clearance of 0.0955 mL/min/kg and a half-life of 13.6 h. Moreover, in series [3] (sc, 0.5 mg/kg), the exposure AUC(0-t) worked out at 49900 ng·h/mL, the highest level (Cmax) was 1320 ng/mL, the bioavailability worked out at 69% and the half-life is 15.5 h. The EC50 in series [4] is > 10 nM.
In turn, `CC[C@H](C)[C@H](NC(=O)[C@H](CCCNC(=N)N)NC(=O)[C@H](CC(=O)O)NC(=O)[C@H](CCCCNC(=O)COCCOCCNC(=O)COCCOCCNC(=O)CC[C@H](NC(=O)CCCCCCCCCCCCCCCCC(=O)O)C(=O)O)NC(=O)C(C)(C)NC(=O)[C@@H](NC(=O)[C@H](CO)NC(=O)[C@H](CC(C)C)NC(=O)[C@H](CC(=O)O)NC(=O)[C@H](CO)NC(=O)[C@@H](NC(=O)[C@H](Cc1ccccc1)NC(=O)[C@@H](NC(=O)CNC(=O)[C@H](CCC(=O)O)NC(=O)C(C)(C)NC(=O)[C@@H](N)Cc1ccc(O)cc1)[C@@H](C)O)[C@@H](C)CC)[C@@H](C)CC)C(=O)N[C@@H](Cc1c[nH]cn1)C(=O)N[C@@H](CCC(N)=O)C(=O)NC(C)(C)C(=O)N[C@@H](CCC(=O)O)C(=O)N[C@@H](Cc1ccccc1)C(=O)N[C@H](C(=O)N[C@@H](CCC(=O)O)C(=O)N[C@@H](Cc1c[nH]c2ccccc12)C(=O)N[C@](C)(CC)C(=O)N[C@@H](CC(C)C)C(=O)N[C@@H](C)C(=O)N[C@@H](CCC(N)=O)C(=O)NCC(=O)N1CCC[C@H]1C(=O)N[C@@H](CO)C(=O)N[C@@H](CO)C(=O)NCC(=O)N[C@@H](C)C(=O)N1CCC[C@H]1C(=O)N1CCC[C@H]1C(=O)N1CCC[C@H]1C(=O)N[C@@H](CO)C(N)=O)[C@@H](C)CC` [SEQ ID NO: 31, H2N-Y-Aib-E-G-T-F-I-S-D-L-S-I-Aib-K[{AEEA}2-gGlu-C18OH]-D-R-I-H-Q-Aib-E-F-I-E-W-Iva-L-A-Q-G-P-S-S-G-A-P-P-P-S-NH2] (H-Y[Aib]EGTFISDLSI[Aib]K([AEEA-AEEA-γGlu-C18 diacid])DRIHQ[Aib]EFIEW[dIva]LAQGPSSGAPPPS-NH2) yielded a concentration for half-maximal inhibition (IC50) in series [1] of 0.3 nM. The compound also yielded a Soluble amount in series [2] of 9.6 mg/mL. Further, the solubility in series [2] (pH 7.4, Soluble amount) was > 10000 µg/mL. Besides, the EC50 in series [4] is > 10 nM.
As to `CC[C@H](C)[C@H](NC(=O)[C@H](CCCNC(=N)N)NC(=O)[C@H](CC(=O)O)NC(=O)[C@H](CC(C)C)NC(=O)C(C)(C)NC(=O)[C@@H](NC(=O)[C@H](CO)NC(=O)[C@H](CC(C)C)NC(=O)[C@H](CC(=O)O)NC(=O)[C@H](CO)NC(=O)[C@@H](NC(=O)[C@H](Cc1ccccc1)NC(=O)[C@@H](NC(=O)CNC(=O)[C@H](CCC(=O)O)NC(=O)C(C)(C)NC(=O)[C@@H](N)Cc1ccc(O)cc1)[C@@H](C)O)[C@@H](C)CC)[C@@H](C)CC)C(=O)N[C@@H](CCCCNC(=O)COCCOCCNC(=O)COCCOCCNC(=O)CC[C@H](NC(=O)CCCCCCCCCCCCCCCCC(=O)O)C(=O)O)C(=O)N[C@@H](CCC(N)=O)C(=O)NC(C)(C)C(=O)N[C@@H](CCC(=O)O)C(=O)N[C@@H](Cc1ccccc1)C(=O)N[C@H](C(=O)N[C@@H](CCC(=O)O)C(=O)N[C@@H](Cc1c[nH]c2ccccc12)C(=O)N[C@@H](CC(C)C)C(=O)N[C@@H](CC(C)C)C(=O)N[C@@H](C)C(=O)N[C@@H](CCC(N)=O)C(=O)NCC(=O)N1CCC[C@H]1C(=O)N[C@@H](CO)C(=O)N[C@@H](CO)C(=O)NCC(=O)N[C@@H](C)C(=O)N1CCC[C@H]1C(=O)N1CCC[C@H]1C(=O)N1CCC[C@H]1C(=O)N[C@@H](CO)C(N)=O)[C@@H](C)CC` [SEQ ID NO: 37, H2N-Y-Aib-E-G-T-F-I-S-D-L-S-I-Aib-L-D-R-I-K[{AEEA}2-gGlu-C18OH]-Q-Aib-E-F-I-E-W-L-L-A-Q-G-P-S-S-G-A-P-P-P-S-NH2] (H-Y[Aib]EGTFISDLSI[Aib]LDRIK([AEEA-AEEA-γGlu-C18 diacid])Q[Aib]EFIEWLLAQGPSSGAPPPS-NH2), the concentration for half-maximal inhibition (IC50) in series [1] came to 0.1 nM. In series [2] (pH 7.4, Soluble amount), this compound had a solubility at 24 h of 8600 µg/mL (≈ 1740 µM). Also, the EC50 in series [4] is > 10 nM.
